Source: ChEMBL document CHEMBL1201862, “PubChem BioAssay data set” (2004)
Activity calls are given as the source filed them.

Key:
[1] = Luminescence Cell-Based Dose Response HTS to Identify Activators of Luciferase Translation or Activity in H4 […] Cells. [Related pubchem assays: 1829 (Project Summary), 1814 (Primary HTS)]; format: functional
H4 = experiment: Luminescence Cell-Based Dose Response HTS to Identify Activators of 5'UTR Stem-Loop Driven Prion Protein mRNA Translation in H4 Neuroglioblastoma Cells. [Related pubchem assays: 1829 (Project Summary), 1814 (Primary HTS)]; format: functional; settings: Homo sapiens
[2] = cytotoxicity in HMLE control line with eGFP shRNA, dose response, counter-screen for HMLE_sh_ECad selective toxicity project, cell-based, HMLE_sh_eGFP, luminescence (AID 463074); format: functional, Homo sapiens;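 further: HMLE human mammary epithelial cells expressing control shRNA against eGFP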
[3] = Luminescence Cell-Based Dose Retest to Confirm Inhibitors of Cancer Stem Cells. [Related pubchem assays (depositor defined):AID2717, AID2721]; format: functional; settings: Homo sapiens
[4] = HepG2 cell cytotoxicity, dose response, cytotoxicity control, ATP luminescence, cherry-pick, activator set 2 (AID 1053143); format: functional, cell-based
Cytochrome P450 2D6 = Cytochrome P450 2D6 (Homo sapiens, UniProt P10635);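 further: CYP2D6 member of a cytochrome P450 panel assay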
[5] = molecular target: FAD-linked sulfhydryl oxidase ALR (Homo sapiens, UniProt P55789); experiment: inhibitors of human ALR sulfhydryl oxidase, dose response, biochemical, H2O2 detection, luminescence, cherry-pick (AID 493248)
cells [6] = format: functional, cell-based
Cytochrome P450 2C9 = Cytochrome P450 2C9 (Homo sapiens, UniProt P11712)
Cytochrome P450 2C19 = Cytochrome P450 2C19 (Homo sapiens, UniProt P33261); experiment: Cytochrome panel assay with activity outcomes. Panel member name: p450-cyp2c19 Compounds with AC50 equal or less than 10 uM are considered active; format: functional; settings: read-out: AC50
Coagulation factor XII = Coagulation factor XII (Homo sapiens, UniProt P00748); format: functional;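 further: activated factor XIIa alpha cleaving a fluorogenic AMC peptide substrate; inhibitor potency from loss of enzyme activity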
cells [7] = format: functional, cell-based; remark: listed apart in the source
[8] = molecular target: T1, Orexin/Hypocretin receptor type 1 (Homo sapiens, UniProt O43613); experiment: Homogeneous Time Resolved Fluorescence (HTRF)-based cell-based high throughput dose response assay for antagonists of the orexin 1 receptor (OX1R; HCRTR1). [Related pubchem assays (depositor defined):AID434989, AID435008, AID463079, AID485270, AID492963, AID492964, AID492965, AID493232, AID504717, AID504718]; format: functional
T1 sequence (O43613 whole entry): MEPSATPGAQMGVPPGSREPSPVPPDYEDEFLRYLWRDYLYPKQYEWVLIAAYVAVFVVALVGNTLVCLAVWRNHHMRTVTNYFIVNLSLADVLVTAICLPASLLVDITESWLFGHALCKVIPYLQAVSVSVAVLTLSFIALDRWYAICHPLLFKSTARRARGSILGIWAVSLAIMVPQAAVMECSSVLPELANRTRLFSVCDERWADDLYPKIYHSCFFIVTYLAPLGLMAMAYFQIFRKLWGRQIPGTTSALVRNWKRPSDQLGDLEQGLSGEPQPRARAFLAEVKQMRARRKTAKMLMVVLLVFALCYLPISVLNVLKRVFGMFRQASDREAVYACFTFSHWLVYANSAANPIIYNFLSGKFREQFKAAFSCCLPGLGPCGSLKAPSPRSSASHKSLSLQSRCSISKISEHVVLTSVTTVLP

[9] = molecular target: T1, Orexin/Hypocretin receptor type 1; experiment: Fluorescence-based cell-based high throughput dose response assay for antagonists of the orexin 1 receptor (OX1R; HCRTR1). [Related pubchem assays (depositor defined):AID434989, AID435008, AID463079, AID485270, AID492963, AID492964, AID492965, AID493232, AID504717, AID504718]; format: functional
[10] = (§1) Counterscreen for antagonists of the orexin 1 receptor (OX1R; HCRTR1): Fluorescence-based cell-based high throughput dose response assay to identify antagonists of the parental CHO cell line. [Related pubchem assays (depositor defined):AID434989, AID435008, AID463079, AID485270, AID492963, AID492964, AID492965, AID493232, AID504699, AID504701]; format: functional
CHO-K1 = experiment: as §1, with “Homogeneous time resolved fluorescence (HTRF)-based” for “Fluorescence-based”, “cell-based” for “cell-based high throughput”, “CHO-K1” for “CHO”; format: functional; settings: Cricetulus griseus;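 further: potency for inhibition of ATP-stimulated IP1 production as antagonists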
[11] = molecular target: T2, Polyadenylate-binding protein 1 (Homo sapiens, UniProt P11940); experiment: PABP1 MLLE–PAM2 interaction inhibitors, dose response, miRNA deadenylation inhibitor project, biochemical, fluorescence polarization, Cy5-PAM2 peptide, secondary (AID 602260); format: functional; settings: read-out: IC50_Mean
[12] = molecular target: T2, Polyadenylate-binding protein 1; experiment: PABP1 MLLE–PAM2 binding inhibitor potency, dose response, biochemical, fluorescence polarization, FITC-PAM2 peptide (AID 602259); format: functional; settings: read-out: IC50_Mean
[13] = molecular target: T3, Alkaline phosphatase, tissue-nonspecific isozyme (Homo sapiens, UniProt P05186)
T3 sequence (P05186 whole entry): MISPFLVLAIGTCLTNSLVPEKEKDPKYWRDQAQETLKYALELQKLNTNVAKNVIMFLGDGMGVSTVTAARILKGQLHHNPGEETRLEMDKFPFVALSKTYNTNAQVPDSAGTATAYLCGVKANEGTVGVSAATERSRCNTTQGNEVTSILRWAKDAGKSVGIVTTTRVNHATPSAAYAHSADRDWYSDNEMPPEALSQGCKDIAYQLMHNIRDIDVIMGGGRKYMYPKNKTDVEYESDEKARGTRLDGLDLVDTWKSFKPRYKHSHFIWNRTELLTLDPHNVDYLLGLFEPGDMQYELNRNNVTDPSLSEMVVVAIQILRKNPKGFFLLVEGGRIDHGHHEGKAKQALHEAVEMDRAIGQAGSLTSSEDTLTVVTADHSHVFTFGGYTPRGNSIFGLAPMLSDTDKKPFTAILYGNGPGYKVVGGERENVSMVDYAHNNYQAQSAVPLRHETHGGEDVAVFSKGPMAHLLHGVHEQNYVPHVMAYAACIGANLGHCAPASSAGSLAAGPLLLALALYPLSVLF

[14] = insulin promoter down-regulators in MIN6 cells, imaging, high-content screening, mouse beta cells (AID 1628); format: functional
[15] = cytotoxicity in MIN6 insulinoma cells, dose response, cytotoxicity control, cell-based, mouse insulinoma (AID 2122); format: functional;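 further: confirmatory high-throughput counterscreen run to flag cytotoxic compounds; mouse MIN-6 beta cells carrying an insulin promoter eGFP reporter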
Mu-type opioid receptor = Mu-type opioid receptor (Homo sapiens, UniProt P35372); experiment: (§2) Counterscreen for agonists of heterodimerization of the mu 1 (OPRM1) and delta 1 (OPRD1) opioid receptors: Luminescence-based cell-based high throughput dose response assay to identify agonists of OPRM1 homodimerization.; format: functional
[16] = molecular target: Delta-type opioid receptor (Homo sapiens, UniProt P41143); experiment: as §2, with “of OPRD1” for “of OPRM1”, “homodimerization. [Related pubchem assays (depositor defined):AID504326, AID504355, AID504692, AID504904, AID504905]” for “homodimerization.”; format: functional
[17] = molecular target: 5-hydroxytryptamine receptor 5A (Homo sapiens, UniProt P47898); experiment: Counterscreen for agonists of OPRM1-OPRD1 heterodimerization: luminescence-based cell-based high throughput dose response assay to identify agonists of 5-hydroxytryptamine (serotonin) 5A receptor (HTR5A). [Related pubchem assays (depositor defined):AID504326, AID504355, AID504692, AID504904, AID504905]; format: functional
[18] = molecular target: T4, Tyrosine-protein phosphatase non-receptor type 22 (Homo sapiens, UniProt Q9Y2R2); format: functional
T4 sequence (Q9Y2R2 whole entry): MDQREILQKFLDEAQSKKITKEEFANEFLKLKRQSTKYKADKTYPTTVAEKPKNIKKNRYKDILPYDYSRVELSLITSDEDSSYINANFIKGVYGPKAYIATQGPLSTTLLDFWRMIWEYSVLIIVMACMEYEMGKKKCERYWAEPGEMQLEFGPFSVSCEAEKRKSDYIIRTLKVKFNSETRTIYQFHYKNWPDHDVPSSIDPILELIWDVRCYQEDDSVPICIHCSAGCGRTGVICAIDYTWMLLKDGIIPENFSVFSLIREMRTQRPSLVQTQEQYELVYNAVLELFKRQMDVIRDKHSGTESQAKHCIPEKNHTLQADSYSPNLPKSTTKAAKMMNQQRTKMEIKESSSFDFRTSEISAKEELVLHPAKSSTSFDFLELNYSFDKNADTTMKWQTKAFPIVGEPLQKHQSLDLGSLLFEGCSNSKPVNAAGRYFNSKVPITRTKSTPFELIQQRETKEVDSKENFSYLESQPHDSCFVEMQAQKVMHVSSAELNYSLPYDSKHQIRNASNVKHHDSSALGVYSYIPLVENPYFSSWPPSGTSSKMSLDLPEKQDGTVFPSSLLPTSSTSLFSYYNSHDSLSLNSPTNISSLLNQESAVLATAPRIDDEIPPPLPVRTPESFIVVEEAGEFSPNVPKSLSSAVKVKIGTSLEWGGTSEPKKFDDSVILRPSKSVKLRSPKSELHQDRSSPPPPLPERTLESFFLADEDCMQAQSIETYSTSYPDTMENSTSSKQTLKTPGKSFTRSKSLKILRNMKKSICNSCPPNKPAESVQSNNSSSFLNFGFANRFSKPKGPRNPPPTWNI

[19] = molecular target: T5, Tyrosine-protein phosphatase non-receptor type 7 (Homo sapiens, UniProt P35236); format: functional
T5 sequence (P35236 whole entry): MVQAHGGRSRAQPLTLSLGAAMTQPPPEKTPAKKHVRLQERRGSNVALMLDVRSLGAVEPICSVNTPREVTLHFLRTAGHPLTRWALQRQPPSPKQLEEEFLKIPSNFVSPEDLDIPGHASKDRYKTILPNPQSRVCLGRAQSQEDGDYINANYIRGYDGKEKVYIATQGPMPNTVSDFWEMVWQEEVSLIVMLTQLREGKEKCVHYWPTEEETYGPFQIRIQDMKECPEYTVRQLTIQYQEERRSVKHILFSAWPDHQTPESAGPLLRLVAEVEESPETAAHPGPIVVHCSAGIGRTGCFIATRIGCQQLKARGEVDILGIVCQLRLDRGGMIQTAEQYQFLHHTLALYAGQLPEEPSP

[20] = molecular target: T4, Tyrosine-protein phosphatase non-receptor type 22; format: functional; remark: listed apart in the source
[21] = control 3'UTR Renilla luciferase suppression, dose response, counter-screen for Shn3 inhibitor project, cell-based, Clone20-Shn3RL, cherry-picked (AID 624133); format: functional
[22] = HepG2 cell cytotoxicity, dose response, cytotoxicity control for Shn3 inhibitor project, CellTiter-Glo, cherry-picked (AID 624134); format: functional, cell-based
[23] = Shn3 3'UTR reporter inhibitors, dose response, cell-based, Clone20 osteoblasts, firefly luciferase, cherry-picked (AID 624132); format: functional;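 further: firefly luciferase luminescence from reporter carrying the Shn3 3'UTR in osteoblasts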
Protein Wnt-3a = Protein Wnt-3a (Mus musculus, UniProt P27467); experiment: Wnt3a-driven reporter signaling inhibition, dose response, selectivity assay for Gli-SUFU antagonist project, Wnt-LIGHT cells, luminescence (AID 651570); format: functional; settings: read-out: IC50_Mean;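 further: Wnt-LIGHT reporter cells stimulated with conditioned medium from Wnt3a-producing cells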
Protein Wnt-3a, sequence (P27467 whole entry): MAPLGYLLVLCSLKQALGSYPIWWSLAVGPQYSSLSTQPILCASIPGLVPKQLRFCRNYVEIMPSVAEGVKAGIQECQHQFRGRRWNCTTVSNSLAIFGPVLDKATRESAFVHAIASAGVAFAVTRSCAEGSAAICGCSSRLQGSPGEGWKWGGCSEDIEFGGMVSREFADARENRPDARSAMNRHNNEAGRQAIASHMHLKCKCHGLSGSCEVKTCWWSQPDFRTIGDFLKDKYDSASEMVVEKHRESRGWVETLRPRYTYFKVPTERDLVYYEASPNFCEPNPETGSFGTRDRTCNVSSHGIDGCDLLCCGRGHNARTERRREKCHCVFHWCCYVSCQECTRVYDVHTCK

Cytochrome P450 2D6, sequence (P10635 whole entry): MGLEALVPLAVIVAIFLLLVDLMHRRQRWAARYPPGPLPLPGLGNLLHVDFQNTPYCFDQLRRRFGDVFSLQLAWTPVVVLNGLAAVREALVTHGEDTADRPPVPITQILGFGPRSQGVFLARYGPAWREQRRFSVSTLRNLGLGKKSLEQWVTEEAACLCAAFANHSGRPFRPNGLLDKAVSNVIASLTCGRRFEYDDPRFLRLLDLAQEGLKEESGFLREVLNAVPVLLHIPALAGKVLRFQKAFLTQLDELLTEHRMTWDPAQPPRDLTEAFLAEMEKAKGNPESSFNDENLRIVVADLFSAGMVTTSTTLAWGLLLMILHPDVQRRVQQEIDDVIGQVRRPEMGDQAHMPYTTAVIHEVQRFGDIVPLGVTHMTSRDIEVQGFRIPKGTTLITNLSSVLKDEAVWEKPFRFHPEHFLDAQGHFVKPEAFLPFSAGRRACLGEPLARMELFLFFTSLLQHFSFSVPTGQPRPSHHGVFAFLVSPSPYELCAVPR
T2 sequence (P11940 whole entry): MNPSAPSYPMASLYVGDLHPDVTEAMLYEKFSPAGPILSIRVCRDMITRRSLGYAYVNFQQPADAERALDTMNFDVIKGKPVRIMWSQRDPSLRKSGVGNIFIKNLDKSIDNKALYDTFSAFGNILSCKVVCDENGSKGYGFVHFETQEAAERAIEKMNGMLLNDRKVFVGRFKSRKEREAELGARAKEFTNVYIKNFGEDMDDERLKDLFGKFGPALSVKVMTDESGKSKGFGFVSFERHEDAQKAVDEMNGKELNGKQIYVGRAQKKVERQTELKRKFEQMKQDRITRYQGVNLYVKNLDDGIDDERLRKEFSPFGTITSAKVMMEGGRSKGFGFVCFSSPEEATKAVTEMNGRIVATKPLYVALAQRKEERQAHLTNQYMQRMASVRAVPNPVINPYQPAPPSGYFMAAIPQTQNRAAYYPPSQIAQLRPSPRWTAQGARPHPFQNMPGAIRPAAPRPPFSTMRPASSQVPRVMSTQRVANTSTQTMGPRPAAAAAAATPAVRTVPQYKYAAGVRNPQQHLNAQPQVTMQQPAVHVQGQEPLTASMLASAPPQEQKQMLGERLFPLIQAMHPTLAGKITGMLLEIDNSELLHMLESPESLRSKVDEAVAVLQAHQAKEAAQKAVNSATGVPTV
FAD-linked sulfhydryl oxidase ALR, sequence (P55789 whole entry): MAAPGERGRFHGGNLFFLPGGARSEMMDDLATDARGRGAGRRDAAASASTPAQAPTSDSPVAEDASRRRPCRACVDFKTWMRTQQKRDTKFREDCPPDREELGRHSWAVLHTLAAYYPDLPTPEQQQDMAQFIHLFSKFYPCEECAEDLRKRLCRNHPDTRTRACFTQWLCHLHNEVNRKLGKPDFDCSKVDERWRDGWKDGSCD
Cytochrome P450 2C9, sequence (P11712 whole entry): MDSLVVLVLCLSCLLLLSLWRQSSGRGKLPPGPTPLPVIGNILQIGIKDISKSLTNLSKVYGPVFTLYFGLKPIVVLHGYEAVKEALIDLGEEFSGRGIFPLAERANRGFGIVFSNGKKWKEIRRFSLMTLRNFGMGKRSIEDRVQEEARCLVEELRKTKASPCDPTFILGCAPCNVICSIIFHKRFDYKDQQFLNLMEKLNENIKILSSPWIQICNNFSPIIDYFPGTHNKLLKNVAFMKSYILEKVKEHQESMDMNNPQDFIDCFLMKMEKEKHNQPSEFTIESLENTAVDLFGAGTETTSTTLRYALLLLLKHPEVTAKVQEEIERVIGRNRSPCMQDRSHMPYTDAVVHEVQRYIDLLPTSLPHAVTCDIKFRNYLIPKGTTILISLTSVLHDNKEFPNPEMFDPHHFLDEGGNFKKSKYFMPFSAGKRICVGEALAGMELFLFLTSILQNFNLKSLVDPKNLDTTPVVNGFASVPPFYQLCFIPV
Delta-type opioid receptor, sequence (P41143 whole entry): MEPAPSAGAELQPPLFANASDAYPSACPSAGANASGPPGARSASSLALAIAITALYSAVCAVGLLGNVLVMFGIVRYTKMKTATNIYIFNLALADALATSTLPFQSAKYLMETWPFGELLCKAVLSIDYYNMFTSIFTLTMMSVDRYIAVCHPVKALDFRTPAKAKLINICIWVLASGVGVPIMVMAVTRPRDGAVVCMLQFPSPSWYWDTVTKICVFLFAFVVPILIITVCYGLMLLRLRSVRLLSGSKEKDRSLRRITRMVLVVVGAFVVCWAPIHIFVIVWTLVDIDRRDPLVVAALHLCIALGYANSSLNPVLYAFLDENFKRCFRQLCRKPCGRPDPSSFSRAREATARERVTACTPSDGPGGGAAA
Coagulation factor XII, sequence (P00748 20-372 limits assumed): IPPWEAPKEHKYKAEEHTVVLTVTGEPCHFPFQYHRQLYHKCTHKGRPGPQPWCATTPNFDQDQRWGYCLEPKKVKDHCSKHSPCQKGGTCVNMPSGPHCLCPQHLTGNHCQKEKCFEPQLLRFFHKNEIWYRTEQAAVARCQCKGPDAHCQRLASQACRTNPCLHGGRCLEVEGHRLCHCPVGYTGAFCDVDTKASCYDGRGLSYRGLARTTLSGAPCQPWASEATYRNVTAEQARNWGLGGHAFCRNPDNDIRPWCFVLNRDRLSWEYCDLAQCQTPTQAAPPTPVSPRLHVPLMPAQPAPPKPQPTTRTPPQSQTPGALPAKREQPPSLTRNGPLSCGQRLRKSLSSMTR
Coagulation factor XII, sequence (P00748 373-615 limits assumed): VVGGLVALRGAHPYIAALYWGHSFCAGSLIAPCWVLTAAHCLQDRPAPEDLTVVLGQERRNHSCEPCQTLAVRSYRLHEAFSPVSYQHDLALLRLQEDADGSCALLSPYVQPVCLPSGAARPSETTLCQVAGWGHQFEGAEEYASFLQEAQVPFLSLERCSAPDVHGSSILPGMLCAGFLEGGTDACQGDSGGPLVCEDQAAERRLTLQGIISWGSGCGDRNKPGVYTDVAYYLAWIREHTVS
Mu-type opioid receptor, sequence (P35372 whole entry): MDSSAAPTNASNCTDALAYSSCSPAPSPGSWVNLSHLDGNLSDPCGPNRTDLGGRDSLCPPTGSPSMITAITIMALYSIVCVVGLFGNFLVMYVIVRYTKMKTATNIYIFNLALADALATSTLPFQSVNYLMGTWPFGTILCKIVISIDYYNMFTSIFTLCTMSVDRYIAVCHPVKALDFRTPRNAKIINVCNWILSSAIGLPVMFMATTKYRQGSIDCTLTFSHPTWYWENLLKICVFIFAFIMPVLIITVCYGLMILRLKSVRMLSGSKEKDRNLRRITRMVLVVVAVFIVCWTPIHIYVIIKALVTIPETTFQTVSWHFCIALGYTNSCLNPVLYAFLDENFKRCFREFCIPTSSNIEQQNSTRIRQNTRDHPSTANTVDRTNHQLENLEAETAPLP
Cytochrome P450 2C19, sequence (P33261 whole entry): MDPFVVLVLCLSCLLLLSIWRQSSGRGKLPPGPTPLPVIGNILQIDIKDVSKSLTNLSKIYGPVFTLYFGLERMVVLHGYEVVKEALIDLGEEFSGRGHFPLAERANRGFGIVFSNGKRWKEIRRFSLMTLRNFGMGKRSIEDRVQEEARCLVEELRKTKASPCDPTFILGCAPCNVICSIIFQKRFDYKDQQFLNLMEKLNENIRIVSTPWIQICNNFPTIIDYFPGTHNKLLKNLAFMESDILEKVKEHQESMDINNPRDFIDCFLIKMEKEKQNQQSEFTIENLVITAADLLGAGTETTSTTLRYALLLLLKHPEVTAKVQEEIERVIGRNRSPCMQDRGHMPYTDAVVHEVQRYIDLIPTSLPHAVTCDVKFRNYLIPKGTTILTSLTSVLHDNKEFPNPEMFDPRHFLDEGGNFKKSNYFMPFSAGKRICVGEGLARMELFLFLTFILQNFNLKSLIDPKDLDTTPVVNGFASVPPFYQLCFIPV
5-hydroxytryptamine receptor 5A, sequence (P47898 whole entry): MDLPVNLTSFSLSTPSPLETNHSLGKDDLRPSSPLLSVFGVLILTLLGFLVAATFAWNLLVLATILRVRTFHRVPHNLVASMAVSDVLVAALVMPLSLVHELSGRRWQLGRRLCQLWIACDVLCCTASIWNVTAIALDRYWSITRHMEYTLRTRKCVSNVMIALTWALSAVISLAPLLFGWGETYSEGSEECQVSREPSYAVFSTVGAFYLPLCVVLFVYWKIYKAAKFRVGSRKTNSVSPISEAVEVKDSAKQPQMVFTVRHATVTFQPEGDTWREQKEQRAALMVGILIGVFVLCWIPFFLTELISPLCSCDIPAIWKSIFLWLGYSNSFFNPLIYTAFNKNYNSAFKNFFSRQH

Cc1oc(=O)c(NC(=O)c2cccc(Cl)c2)cc1C(=O)c1ccccc1
EC50 [1]: 6.62 µM (active)
EC50 (H4): 90.8 µM (active)
AC50 [2]: 21.7 µM (active)
AC50 [3]: 16.4 µM (active)
AC50 [4]: 26 µM (active)

Cc1ccsc1/C=C1/SC(=O)N(CC(=O)N2CCOCC2)C1=O
AC50 (Cytochrome P450 2D6): inconclusive

Cc1ccc(/C=N\Nc2nc3cc(Cl)ccc3[nH]2)o1
AC50 [5]: 0.289 µM (active)
EC50 (cells [6]): 27.6 µM (active)
AC50 (Cytochrome P450 2C9): 7.08 µM (inconclusive)
AC50 (Cytochrome P450 2C19): 28.2 µM (inconclusive)
IC50 (Coagulation factor XII): > 50 µM (inactive)
EC50 (cells [7]): > 350 µM (not active)

C[C@@H]1CN([C@@H](C)CO)C(=O)c2cccc(NC(=O)Nc3ccc(F)cc3)c2O[C@@H]1CN(C)Cc1ccc(Oc2ccccc2)cc1
IC50 [8]: > 66.2 µM (inactive)
IC50 [9]: 11.2 µM (inactive)
IC50 [10]: 23.7 µM (inactive)
IC50 (CHO-K1): > 66.2 µM (inactive)

COCCNC(=S)N/N=C(\C)c1ccccc1O
IC50 [11]: > 66 µM (inactive)
IC50 [12]: > 66 µM (inactive)
EC50 [13]: 70.7 µM (not active)
IC50 [14]: 2.44 µM (active)
IC50 [15]: 1.01 µM (active)

O=C(NCCc1ccc(Cl)cc1)C1CCC(CNc2nc(=S)[nH]c3ccccc23)CC1 (centres undefined)
EC50 (Mu-type opioid receptor): > 92.5 µM (inactive)
EC50 [16]: > 92.5 µM (inactive)
EC50 [17]: > 92.5 µM (inactive)

CCOC(=O)CC1(NC(=O)c2cc(COc3cncc(Cl)c3)on2)CCCCC1
IC50 [18]: > 79.4 µM (inactive)
IC50 [19]: > 79.4 µM (inactive)
IC50 [20]: > 79.4 µM (inactive)

CCc1c(C)nc2ncnn2c1N1CCN(S(=O)(=O)c2ccc(OC)cc2)CC1
AC50 [21]: 3.52 µM (active)
AC50 [22]: 5.28 µM (active)
AC50 [23]: 1.16 µM (active)
IC50 (Protein Wnt-3a): 5.74 µM (active)
IC50 [14]: 1.35 µM (active)
IC50 [15]: 0.936 µM (active)

C[N+]1(CCC(=O)c2ccco2)C[C@H]2CC[C@H](CC2)C1 (some centres undefined)
AC50 (Cytochrome P450 2D6): inconclusive
